Reference: US12187723B2 (BRISTOL-MYERS SQUIBB COMPANY, priority 2019, dated 2025)
pIC50: −log10 of the molar value.

Legend:
human TLR8 = biological target: T1, human TLR8 (Homo sapiens, UniProt Q9NR97); test: TLR8 inhibition reporter assay (HEK-Blue SEAP); assay type: cell-based; settings: HEK-Blue cells overexpressing human TLR8, R848 15.9 μM, 22 hour incubation
T1 construct: host or cells: HEK-Blue cells
T1 sequence (Q9NR97 27-1041): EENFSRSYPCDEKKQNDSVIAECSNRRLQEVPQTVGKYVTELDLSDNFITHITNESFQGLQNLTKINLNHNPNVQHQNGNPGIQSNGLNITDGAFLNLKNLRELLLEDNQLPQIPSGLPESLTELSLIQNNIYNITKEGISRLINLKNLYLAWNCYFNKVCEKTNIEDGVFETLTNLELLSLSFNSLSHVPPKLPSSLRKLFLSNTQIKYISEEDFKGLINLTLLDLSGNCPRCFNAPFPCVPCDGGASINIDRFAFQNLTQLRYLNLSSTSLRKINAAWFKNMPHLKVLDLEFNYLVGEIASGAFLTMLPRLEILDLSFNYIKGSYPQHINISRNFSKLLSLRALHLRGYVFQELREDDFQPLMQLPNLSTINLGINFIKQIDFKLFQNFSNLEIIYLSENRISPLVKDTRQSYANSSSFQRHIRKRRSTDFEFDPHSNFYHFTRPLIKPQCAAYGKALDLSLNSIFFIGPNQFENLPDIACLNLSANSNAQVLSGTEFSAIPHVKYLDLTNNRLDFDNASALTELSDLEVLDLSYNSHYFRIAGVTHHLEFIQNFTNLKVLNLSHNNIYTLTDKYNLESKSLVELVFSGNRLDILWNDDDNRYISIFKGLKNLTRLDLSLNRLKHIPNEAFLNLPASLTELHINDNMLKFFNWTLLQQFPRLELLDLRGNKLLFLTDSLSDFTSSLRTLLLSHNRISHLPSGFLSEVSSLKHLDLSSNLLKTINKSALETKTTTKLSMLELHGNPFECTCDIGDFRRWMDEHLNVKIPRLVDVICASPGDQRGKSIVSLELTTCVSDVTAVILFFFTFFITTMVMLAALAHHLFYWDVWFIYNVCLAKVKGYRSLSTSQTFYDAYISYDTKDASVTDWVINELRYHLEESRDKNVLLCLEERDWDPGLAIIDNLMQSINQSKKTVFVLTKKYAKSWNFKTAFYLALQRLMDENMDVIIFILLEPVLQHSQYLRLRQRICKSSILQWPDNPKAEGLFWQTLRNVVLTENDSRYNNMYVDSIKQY
Procedure, shortened: (§1)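 Human TLR7/8/9 HEK-Blue reporter lines; dose range 0.05 nM–50 μM; 30 min RT preincubation; stimulus gardiquimod 7.5 μM / R848 15.9 μM / ODN2006 5 nM respectively; 22 h, 37 °C; SEAP detected colorimetrically.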

human TLR9 = biological target: T2, human TLR9 (Homo sapiens, UniProt Q9NR96); test: TLR9 inhibition reporter assay (HEK-Blue SEAP); assay type: cell-based; settings: HEK-Blue cells overexpressing human TLR9, ODN2006 5 nM, 22 hour incubation
T2 construct: host or cells: HEK-Blue cells
T2 sequence (Q9NR96 26-1032): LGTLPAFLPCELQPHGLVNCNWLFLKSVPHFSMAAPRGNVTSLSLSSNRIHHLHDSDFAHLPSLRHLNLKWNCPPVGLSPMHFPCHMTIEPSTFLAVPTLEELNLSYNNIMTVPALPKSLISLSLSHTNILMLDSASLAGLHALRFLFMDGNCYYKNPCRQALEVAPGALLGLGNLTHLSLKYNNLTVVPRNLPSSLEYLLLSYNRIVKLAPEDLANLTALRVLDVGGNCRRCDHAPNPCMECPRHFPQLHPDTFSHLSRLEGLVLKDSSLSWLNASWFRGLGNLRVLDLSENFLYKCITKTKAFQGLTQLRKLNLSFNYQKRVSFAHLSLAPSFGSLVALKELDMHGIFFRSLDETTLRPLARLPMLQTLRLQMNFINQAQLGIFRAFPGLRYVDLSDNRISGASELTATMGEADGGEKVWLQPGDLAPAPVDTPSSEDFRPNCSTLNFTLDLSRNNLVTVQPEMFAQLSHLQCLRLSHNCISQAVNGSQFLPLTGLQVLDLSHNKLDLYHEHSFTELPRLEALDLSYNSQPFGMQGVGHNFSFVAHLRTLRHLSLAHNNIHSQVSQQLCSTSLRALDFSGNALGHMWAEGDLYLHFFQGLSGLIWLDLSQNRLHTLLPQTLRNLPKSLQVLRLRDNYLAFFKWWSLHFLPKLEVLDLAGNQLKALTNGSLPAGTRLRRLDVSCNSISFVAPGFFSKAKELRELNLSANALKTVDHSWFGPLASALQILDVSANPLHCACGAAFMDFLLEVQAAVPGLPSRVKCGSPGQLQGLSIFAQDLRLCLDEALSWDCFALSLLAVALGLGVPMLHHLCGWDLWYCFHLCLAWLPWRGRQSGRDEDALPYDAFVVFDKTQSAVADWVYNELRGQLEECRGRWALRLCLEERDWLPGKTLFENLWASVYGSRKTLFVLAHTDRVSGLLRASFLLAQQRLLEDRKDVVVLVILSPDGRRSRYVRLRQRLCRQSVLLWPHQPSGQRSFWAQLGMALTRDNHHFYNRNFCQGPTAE
Procedure, shortened: as §1

Row | SMILES | pIC50 (human TLR8) | pIC50 (human TLR9)
1 | Cc1cc2c(cc1-c1cc(C)c3ncnn3c1)[nH]c(=O)n2[C@@H]1CCCN(C2COC2)C1 [Example 18, (R)-6-methyl-5-(8-methyl-[1,2,4]triazolo[1,5-a]pyridin-6-yl)-1-(1-(oxetan-3-yl)piperidin-3-yl)-1,3-dihydro-2H-benzo[d]imidazol-2-one] | 7.09 | < 4.30
2 | Cc1cc2c(cc1-c1cc(C)c3ncnn3c1)[nH]c(=O)n2[C@H]1CC[C@@H](N(C)C)CC1 [Example 19, 1-((1s,4s)-4-(dimethylamino)cyclohexyl)-6-methyl-5-(8-methyl-[1,2,4]triazolo[1,5-a]pyridin-6-yl)-1,3-dihydro-2H-benzo[d]imidazol-2-one] | 7.49 | 4.79
3 | CCN(CC)[C@H]1CC[C@@H](n2c(=O)[nH]c3cc(-c4cc(C)c5ncnn5c4)c(C)cc32)CC1 [Example 20, 1-((1s,4s)-4-(diethylamino)cyclohexyl)-6-methyl-5-(8-methyl-[1,2,4]triazolo[1,5-a]pyridin-6-yl)-1,3-dihydro-2H-benzo[d]imidazol-2-one] | 7.84 | 5.47
4 | Cc1cc2c(cc1-c1cc(C)c3ncnn3c1)[nH]c(=O)n2[C@H]1CC[C@H](N(C)C)CC1 [Example 23, 1-((1r,4r)-4-(dimethylamino)cyclohexyl)-6-methyl-5-(8-methyl-[1,2,4]triazolo[1,5-a]pyridin-6-yl)-1,3-dihydro-2H-benzo[d]imidazol-2-one] | 7.51 | 5.25
5 | Cc1cc2c(cc1-c1cc(C)c3ncnn3c1)[nH]c(=O)n2[C@@H]1CCCN(CC(C)(C)C)C1 [Example 26, (R)-6-methyl-5-(8-methyl-[1,2,4]triazolo[1,5-a]pyridin-6-yl)-1-(1-neopentylpiperidin-3-yl)-1,3-dihydro-2H-benzo[d]imidazol-2-one] | 6.42 | 5.17
6 | Cc1cc2c(cc1-c1cc(C)c3ncnn3c1)[nH]c(=O)n2[C@@H]1CCCN(C2CCOCC2)C1 [Example 27, (R)-6-methyl-5-(8-methyl-[1,2,4]triazolo[1,5-a]pyridin-6-yl)-1-(1-(tetrahydro-2H-pyran-4-yl)piperidin-3-yl)-1,3-dihydro-2H-benzo[d]imidazol-2-one] | 7.30 | 5.07
7 | CCC(C)N1CCC[C@@H](n2c(=O)[nH]c3cc(-c4cc(C)c5ncnn5c4)c(C)cc32)C1 (stereo partly drawn) [Example 28, 1-((3R)-1-(sec-butyl)piperidin-3-yl)-6-methyl-5-(8-methyl-[1,2,4]triazolo[1,5-a]pyridin-6-yl)-1,3-dihydro-2H-benzo[d]imidazol-2-one] | 7.65 | 4.97
8 | Cc1cc2c(cc1-c1cc(C)c3ncnn3c1)[nH]c(=O)n2[C@@H]1CCCN(CCC(F)(F)F)C1 [Example 29, (R)-6-methyl-5-(8-methyl-[1,2,4]triazolo[1,5-a]pyridin-6-yl)-1-(1-(3,3,3-trifluoropropyl)piperidin-3-yl)-1,3-dihydro-2H-benzo[d]imidazol-2-one] | 7.31 | < 4.30

Now those with a higher pIC50 (human TLR8), led by results:

Row | pIC50 (human TLR8) | pIC50 (human TLR9) | SMILES
9 | 7.88 | 5.15 | CCN[C@H]1CC[C@@H](n2c(=O)[nH]c3cc(-c4cc(C)c5ncnn5c4)c(C)cc32)CC1 [Example 21, 1-((1s,4s)-4-(ethylamino)cyclohexyl)-6-methyl-5-(8-methyl-[1,2,4]triazolo[1,5-a]pyridin-6-yl)-1,3-dihydro-2H-benzo[d]imidazol-2-one]
10 | 7.95 | 5.36 | Cc1cc2c(cc1-c1cc(C)c3ncnn3c1)[nH]c(=O)n2[C@H]1CC[C@H](NC(C)C)CC1 [Example 25, 1-((1r,4s)-4-(isopropylamino)cyclohexyl)-6-methyl-5-(8-methyl-[1,2,4]triazolo[1,5-a]pyridin-6-yl)-1,3-dihydro-2H-benzo[d]imidazol-2-one]
11 | 8.14 | 4.93 | Cc1c(-c2cc3[nH]c(=O)n([C@@H]4CCCNC4)c3cc2C(C)C)cn2ncnc2c1C [119 FC, (R)-5-(7,8-dimethyl-[1,2,4]triazolo[1,5-a]pyridin-6-yl)-6-isopropyl-1-(piperidin-3-yl)-1,3-dihydro-2H-benzo[d]imidazol-2-one]
12 | 8.16 | 5.60 | CCc1cc2c(cc1-c1cc(OC)c3ncnn3c1)[nH]c(=O)n2[C@@H]1CCCNC1 [119 FB, (R)-6-ethyl-5-(8-methoxy-[1,2,4]triazolo[1,5-a]pyridin-6-yl)-1-(piperidin-3-yl)-1,3-dihydro-2H-benzo[d]imidazol-2-one]
13 | 8.17 | 5.80 | CCN[C@H]1CC[C@H](n2c(=O)[nH]c3cc(-c4cc(C)c5ncnn5c4)c(C)cc32)CC1 [Example 24, 1-((1r,4s)-4-(ethylamino)cyclohexyl)-6-methyl-5-(8-methyl-[1,2,4]triazolo[1,5-a]pyridin-6-yl)-1,3-dihydro-2H-benzo[d]imidazol-2-one]
14 | 8.39 | 5.33 | Cc1cc2c(cc1-c1cc(C)c3ncnn3c1)[nH]c(=O)n2[C@H]1CC[C@@H](NC(C)C)CC1 [Example 22, 1-((1s,4s)-4-(isopropylamino)cyclohexyl)-6-methyl-5-(8-methyl-[1,2,4]triazolo[1,5-a]pyridin-6-yl)-1,3-dihydro-2H-benzo[d]imidazol-2-one]
15 | 8.51 | 5.35 | Cc1cc2c(cc1-c1cc(C)c3ncnn3c1)[nH]c(=O)n2[C@H]1CC[C@@H](NC2CCOCC2)CC1 [Example 30, 6-methyl-5-(8-methyl-[1,2,4]triazolo[1,5-a]pyridin-6-yl)-1-((1s,4s)-4-((tetrahydro-2H-pyran-4-yl)amino)cyclohexyl)-1,3-dihydro-2H-benzo[d]imidazol-2-one]
16 | 8.88 | 5.53 | Cc1cc2c(cc1-c1cc(C)c3ncnn3c1)[nH]c(=O)n2[C@H]1CC[C@@H](NCCC(F)(F)F)CC1 [Example 31]
17 | 9.02 | 4.93 | COc1cc(-c2cc3[nH]c(=O)n(C4CCC(N5CCSCC5)CC4)c3cc2C(C)C)cn2ncnc12 (stereo not drawn) [Example 251, 6-isopropyl-5-(8-methoxy-[1,2,4]triazolo[1,5-a]pyridin-6-yl)-1-(4-thiomorpholinocyclohexyl)-1,3-dihydro-2H-benzo[d]imidazol-2-one]
18 | 9.44 | 5.14 | COc1cc(-c2cc3[nH]c(=O)n(C4CCC(N5CCSCC5)CC4)c3cc2C(C)C)cn2ncnc12 (stereo not drawn) [Example 250, 6-isopropyl-5-(8-methoxy-[1,2,4]triazolo[1,5-a]pyridin-6-yl)-1-(4-thiomorpholinocyclohexyl)-1,3-dihydro-2H-benzo[d]imidazol-2-one]
